Laboratory results reported in ChEMBL document CHEMBL2034952, “Chalcone-benzoxaborole hybrid molecules as potent antitrypanosomal agents” (J Med Chem, 2012).
Values after ≈ are worked out from the molar mass of the structure shown. Active and inactive are the calls of the source. No cut-off for these calls is given here.

Experiments:
Trypanosoma brucei [1] = experiment: Antitrypanosomal activity against bloodstream Trypanosoma brucei 427 after 72 hrs by resazurin assay; assay type: functional, organism-based; conditions: Trypanosoma brucei, 427, 72 h
L929 = experiment: Cytotoxicity against mouse L929 cells after 72 hrs by resazurin assay; assay type: cell-based; conditions: L929, 72 h
Trypanosoma brucei [2] = experiment: Antitrypanosomal activity against bloodstream Trypanosoma brucei 221 infected in Balb/c mouse assessed as increase in mouse survival rate at 50 mg/kg, ip BID for 5 days starting 24 hrs post infection measured after 30 days by microscopic analysis; assay type: functional; conditions: Trypanosoma brucei, 221, ip, route intraperitoneal
Trypanosoma brucei [3] = experiment: Antitrypanosomal activity against bloodstream Trypanosoma brucei 221 infected in Balb/c mouse assessed as complete elimination of parasitemia at 50 mg/kg, ip BID for 5 days starting 24 hrs post infection measured after 30 days by microscopic analysis; assay type: functional, organism-based; set-up: dose 50 mg/kg
[4] = Selectivity ratio of IC50 for mouse L929 cells to IC50 for bloodstream Trypanosoma brucei 427; assay type: ADME, cell-based; conditions: read-out: Ratio IC50

IC50 (Trypanosoma brucei [1]) [µg/mL]	Structure (SMILES)	IC50 (L929) [µg/mL]	survival at 50 mg/kg (Trypanosoma brucei [2]) [%]	Activity (Trypanosoma brucei [3])	selectivity ratio [4]
0.366 (≈ 1.13 µM)	COCOc1ccccc1C(=O)/C=C/c1ccc2c(c1)B(O)OC2	9.02 (≈ 27.8 µM)			
0.057 (≈ 0.213 µM)	Cn1cccc1C(=O)/C=C/c1ccc2c(c1)B(O)OC2	> 10			
0.133 (≈ 0.4 µM)	O=C(/C=C/c1ccc2c(c1)B(O)OC2)c1ccc(C(F)(F)F)cc1	> 10			
0.064 (≈ 0.252 µM)	O=C(/C=C/c1ccc2c(c1)B(O)OC2)c1ccco1	> 10			
0.113 (≈ 0.319 µM)	COc1cc(C(=O)/C=C/c2ccc3c(c2)B(O)OC3)cc(OC)c1OC	> 10			
0.099 (≈ 0.373 µM)	O=C(/C=C/c1ccc2c(c1)B(O)OC2)c1ccccn1	> 10			
0.046 (≈ 0.163 µM)	O=C(/C=C/c1ccc2c(c1)B(O)OC2)c1cccc(F)c1	> 10			
0.09 (≈ 0.27 µM)	O=C(/C=C/c1ccc2c(c1)B(O)OC2)c1ccc(Cl)c(Cl)c1	> 10			
0.037 (≈ 0.114 µM)	COc1ccc(C(=O)/C=C/c2ccc3c(c2)B(O)OC3)c(OC)c1	7.87 (≈ 24.3 µM)			
0.046 (≈ 0.165 µM)	Cc1ccc(C(=O)/C=C/c2ccc3c(c2)B(O)OC3)cc1	> 10			
0.04 (≈ 0.137 µM)	Cc1ccc(C(=O)/C=C/c2ccc3c(c2)B(O)OC3)cc1C	> 10			
0.043 (≈ 0.154 µM)	O=C(/C=C/c1ccc2c(c1)B(O)OC2)c1ccc(O)cc1	> 10			
0.037 (≈ 0.132 µM)	O=C(/C=C/c1ccc2c(c1)B(O)OC2)c1cccc(O)c1	7.56 (≈ 27 µM)			
0.082 (≈ 0.265 µM)	O=C(/C=C/c1ccc2c(c1)B(O)OC2)c1ccc([N+](=O)[O-])cc1	> 10			
0.058 (≈ 0.197 µM)	COc1ccccc1C(=O)/C=C/c1ccc2c(c1)B(O)OC2	6.35 (≈ 21.6 µM)			
0.056 (≈ 0.201 µM)	Nc1cccc(C(=O)/C=C/c2ccc3c(c2)B(O)OC3)c1	10 (≈ 35.8 µM)			
0.395 (≈ 1.66 µM)	COc1cccc(C(=O)/C=C/c2ccccc2)c1	5.7 (≈ 23.9 µM)			
0.331 (≈ 1.24 µM)	O=C(CCc1ccc2c(c1)B(O)OC2)c1ccccc1	> 10			

IC50 (Trypanosoma brucei [1]) [µg/mL]	Structure (SMILES)	IC50 (L929) [µg/mL]	survival at 50 mg/kg (Trypanosoma brucei [2]) [%]	Activity (Trypanosoma brucei [3])	selectivity ratio [4]
4.45 (≈ 14.4 µM)	O=C(O)c1ccc(C(=O)/C=C/c2ccc3c(c2)B(O)OC3)cc1	> 10			
0.024 (≈ 0.086 µM)	Nc1ccc(C(=O)/C=C/c2ccc3c(c2)B(O)OC3)cc1	> 10			
0.164 (≈ 0.443 µM)	O=C(/C=C/c1ccc2c(c1)B(O)OC2)c1ccc(OCc2ccccc2)cc1	> 10			
0.172 (≈ 0.614 µM)	O=C(/C=C/c1ccc2c(c1)B(O)OC2)c1ccccc1O	> 10			
0.08 (≈ 0.248 µM)	O=C(/C=C/c1ccc2c(c1)B(O)OC2)c1ccc2c(c1)OCCO2	6.8 (≈ 21.1 µM)			
0.239 (≈ 0.898 µM)	OB1OCc2ccc(/C=C/C(O)c3ccccc3)cc21 (centres undefined)	2.88 (≈ 10.8 µM)			
0.436 (≈ 1.28 µM)	O=C(/C=C/c1ccc2c(c1)B(O)OC2)c1ccc(-c2ccccc2)cc1	> 10			
0.064 (≈ 0.219 µM)	CCc1ccc(C(=O)/C=C/c2ccc3c(c2)B(O)OC3)cc1	> 10			
0.135 (≈ 0.43 µM)	O=C(/C=C/c1ccc2c(c1)B(O)OC2)c1cccc2ccccc12	3.67 (≈ 11.7 µM)			
0.473 (≈ 2.27 µM)	O=C(/C=C/c1ccccc1)c1ccccc1 [CHALCONE]	6.92 (≈ 33.2 µM)			
0.03 (≈ 0.0926 µM)	COc1ccc(C(=O)/C=C/c2ccc3c(c2)B(O)OC3)cc1OC	> 10			
0.2 (≈ 0.595 µM)	CCOC(=O)c1ccc(C(=O)/C=C/c2ccc3c(c2)B(O)OC3)cc1	> 10			
0.69 (≈ 2.33 µM)	COc1cccc(C(=O)CCc2ccc3c(c2)B(O)OC3)c1	> 10			
0.059 (≈ 0.19 µM)	CSc1ccc(C(=O)/C=C/c2ccc3c(c2)B(O)OC3)cc1	> 10			
0.071 (≈ 0.252 µM)	O=C(/C=C/c1ccc2c(c1)B(O)OC2)c1ccccc1F	> 10			
0.055 (≈ 0.186 µM)	O=C(/C=C/c1ccc2c(c1)B(O)OC2)c1ccc(O)c(O)c1	> 10			
0.171 (≈ 0.438 µM)	O=C(/C=C/c1ccc2c(c1)B(O)OC2)c1ccc(I)cc1	> 10			

Structure (SMILES)	IC50 (Trypanosoma brucei [1]) [µg/mL]	IC50 (L929) [µg/mL]	survival at 50 mg/kg (Trypanosoma brucei [2]) [%]	Activity (Trypanosoma brucei [3])	selectivity ratio [4]
COc1cccc(C(=O)/C=C/c2ccc3c(c2)B(O)OC3)c1	0.022 (≈ 0.0748 µM)	> 10	100	Active	
O=C(/C=C/c1ccc2c(c1)B(O)OC2)c1cccs1	0.045 (≈ 0.167 µM)	> 10	20		
CC(=O)Nc1ccc(C(=O)/C=C/c2ccc3c(c2)B(O)OC3)cc1	0.04 (≈ 0.125 µM)	> 10	0		
O=C(/C=C/c1ccc2c(c1)B(O)OC2)c1ccc(Cl)cc1	0.06 (≈ 0.201 µM)	> 10	0		
COCOc1cccc(C(=O)/C=C/c2ccc3c(c2)B(O)OC3)c1	0.071 (≈ 0.219 µM)	> 10	0		
O=C(/C=C/c1ccc2c(c1)B(O)OC2)c1ccc(Br)cc1	0.09 (≈ 0.262 µM)	> 10	0		
COc1cc(C(=O)/C=C/c2ccc3c(c2)B(O)OC3)ccc1[N+](=O)[O-]	0.044 (≈ 0.13 µM)	> 10	0		
O=C(/C=C/c1ccc2c(c1)B(O)OC2)c1ccc(F)cc1	0.1 (≈ 0.355 µM)	> 10	0		
Cc1cccc(C(=O)/C=C/c2ccc3c(c2)B(O)OC3)c1	0.048 (≈ 0.173 µM)	8.56 (≈ 30.8 µM)	0		
COc1ccc(C(=O)/C=C/c2ccc3c(c2)B(O)OC3)cc1	0.071 (≈ 0.241 µM)	> 10	0		
O=C(/C=C/c1ccc2c(c1)B(O)OC2)c1ccccc1	0.089 (≈ 0.337 µM)	> 10	0		
COc1cc(C(=O)/C=C/c2ccc3c(c2)B(O)OC3)ccc1N	0.01 (≈ 0.0323 µM)	1.45 (≈ 4.69 µM)	100	Active	> 100
